Results taken from patent US20160279042A1, “Dental Anti-Hypersensitivity Composition and Method” (The Research Foundation for the State University of New York, priority 1999, published 2016).

Key:
[1] = Hydraulic conductance of dentine discs (Greenhill and Pashley device), simulation of dentinal tubule plugging; conditions: for Hydraulic conductance, effect in words: summary of Table 1
From the text: A device developed by Greenhill and Pashley (J. Dental Research, 60:686-698, 1981) that enables simulation of dentinal tubule plugging in vivo was used to assess the effectiveness of the invention. Dentine discs that varied in thickness from 0.6 to 0.8 mm were cut with a Buhler Isomet saw from extracted caries-free molar teeth. They were then etched with 6% citric acid for two minutes to remove the smear layer and stored in 70% ethanol until used. A disc was mounted in the chamber of the apparatus with occlusal side facing upwards. The occlusal side is determined by passing light through a plastic grid beneath the section and observing the section with a dissecting microscope. The tubules appear further apart with the occlusal side up because of the lower tubular density of the dentine occlusally (Walton et al., J. Dental Research 55:639-642, 1976). Hydraulic conductance of fluid through the discs was determined as described by Greenhill and Pashley, supra.
Fluid containing levels of ions present in serum (Merck Manual, 1972) was used to perfuse the disc. Their concentrations in mM were as follows: Na-140.5, K-4.31, Ca-2.5, Mg-1.0, P-1.3. The pH of this solution is raised to 7.0 with sodium hydroxide. The solution was filtered through a […] (Millipore Corp., Marlborough, Mass. 01752) prior to use to remove any bacteria present. This solution is called artificial ionic dentinal fluid (AIDF). Hydrostatic pressure was created by a fluid reservoir leading via a glass capillary tube into the pulpal side of the chamber at a level 30 cm above that of the surface of the horizontally positioned disc. The distance traveled by an air bubble positioned in the AIDF in the capillary tubing between this pressure head and the pulpal side of the disc in a fixed period of time was converted to hydraulic conductance values in ml cm^−1 min^−1 cm H20^−1.
First, […] of AIDF was applied to the upward facing occlusal side of the section and AIDF was allowed to flow through the disc from the pulpal side for a period of five minutes. The distance that the air bubble moved inside the capillary on the pulpal side of the chamber was measured so that the rate of fluid movement through the disc could be calculated and converted to hydraulic conductance values. This procedure was repeated two more times or until a uniform flow rate was achieved on three consecutive runs. […] Next, the mixture was removed with a pipette, washed three times with 400 μl of deionized water and replaced with AIDF. The AIDF was allowed to flow through the dentine slice and hydraulic conductance readings were made at selected times up to 90 minutes.

[2] = Titration of artificial dentinal fluid, aggregation measured by absorbance; type: physicochemical; conditions: pH of 8.5 and above
Experimental: In order to determine the conditions that promote intrinsic plug formation, we performed the following experiments. We prepared a solution comprised of the ions present in dentinal fluid (which acted as artificial dentinal fluid) and progressively added (titrated) various solutions thereto to determine the conditions and substances conducive to the formation of aggregates (i.e., dentinal plugs). Aggregation was determined by means of measurement of the absorbance with a spectrophotometer.

Structure (SMILES) | Percent Reduction in Hydraulic Conductance ([1]; 0 minutes after exposure) [%] | Percent Reduction in Hydraulic Conductance ([1]; 15 minutes after exposure) [%] | Percent Reduction in Hydraulic Conductance ([1]; 30 minutes after exposure) [%] | Percent Reduction in Hydraulic Conductance ([1]; 45 minutes after exposure) [%] | Percent Reduction in Hydraulic Conductance ([1]; 60 minutes after exposure) [%] | Percent Reduction in Hydraulic Conductance ([1]; 75 minutes after exposure) [%] | Percent Reduction in Hydraulic Conductance ([1]; 90 minutes after exposure) [%] | Hydraulic conductance, effect in words [1] | Aggregation (deposit formation) of dentinal fluid constituents [2]
N=C(N)NCCC[C@H](N)C(=O)O.O=C(O)O [arginine bicarbonate] | 0 | 11.7 | 15.6 | 14.4 | 14.5 | 16.1 | 16.1 | much smaller effects | aggregation of dentinal fluid constituents occurred
O=C([O-])[O-].[Ca+2] [calcium carbonate] | 0 | −18.5 | −12.3 | −5.5 | −4.1 | 5.5 | 5.5 | much smaller effects | not sufficient to produce deposit formation
O=C([O-])O.[Na+] [sodium bicarbonate] | 0 | −10.6 | −1.0 | 7.2 | 11.5 | 15.9 | 19.7 |  | nor could one induce deposition
[Na+].[OH-] [sodium hydroxide] |  |  |  |  |  |  |  |  | nor could one induce deposition
